Test results taken from patent US20240307351A1, “AGENT FOR ANTI-AGING OR FOR CELLULAR REJUVENATION” (TOHOKU UNIVERSITY, priority 2022, published 2024).

What was measured:
[1] = system: genomic DNA of the liver cells; experiment: Degree of methylation of genomic DNA of liver cells by the bisulfite method; format: in vivo, mouse; settings: oral, 50 mg/kg/day, 2 months
Procedure: Water-suspended Compound #5 was orally administered to C57BL6 mice (12 weeks old) at a dose of 50 mg/kg/day per kg of mouse weight for 2 months ([MA5 high dose addition group], n=5). The degree of methylation of the genomic DNA of the liver cells of the young mice was measured by the bisulfite method.
Water-suspended Compound #5 was orally administered to C57BL6 mice (92 weeks old) at a dose of 50 mg/kg/day per kg of mouse weight for 2 months ([MA5 addition group], n=5). The degree of methylation of the genomic DNA of the liver cells of the aged mice was measured by the bisulfite method. In Table 9 and Table 10, “Count” represents how many genes were related among genes related to the pathway. For example, in a pathway involving 20 genes, when there are three genes whose expression levels have been varied by administration of Compound #5, Count is 3, and “ %” thereof is a numerical value calculated by (3/20)×100.
“P-value” represents the p-value of the between-group comparison of pathways, and “Benjamini” represents the p-value calculated using the linear step-up method of Benjamini and Hochberg (1995) (see, for example, https://david.ncifcrf.gov/helps/functional_annotation.html for calculation method).

[2] = system: NDUFS4 homozygous knockout mice (Ndufs4−/−mice); experiment: HE staining of brown adipose tissue of Ndufs4−/− mice; format: in vivo, mouse; settings: 10 mg/day per kg, 50 days, compared with CMC administration group
Procedure: Compound #5 was administered to NDUFS4 homozygous knockout mice (Ndufs4−/−mice) (28 days old) at a dose of 10 mg/day per kg of mouse weight for 50 days ([Compound #5 administration group]).
In addition, CMC (carboxymethylcellulose) was administered to NDUFS4 homozygous knockout mice (Ndufs4−/−mice) at a dose of 10 mg/day per kg of mouse weight for 50 days ([CMC administration group; Control group]).
Since the NDUFS4 homozygous knockout mice are mice with abnormal mitochondrial function and the abnormal mitochondrial function is one of aging phenomena, the NDUFS4 homozygous knockout mice can be used as one type of aging model mice.

SIRTI protein = experiment: Amount of SIRT1 protein in RH30 cells by Western blotting; format: cell-based, human; settings: 30 μM, 24 hours, compared with Control group (DMSO)
Procedure: RH30 cells (human rhabdomyosarcoma cell line; gli gene expression+, N-myc gene expression+) at 1×10^6 cell/dish were seeded and cultured in a dish containing 10 mL of a culture solution (low-glucose-containing DMEM medium (glucose concentration of 1.0 g/dL) to which 10 wt. % of FBS was added). One day later, Compound #5 was added to have a concentration of 30 μM, and the mixture was cultured for 24 hours ([Compound #5 addition group]). Compound #9, Compound #13, Compound #21, Compound #30, or Compound #35 as the present compound was added in place of Compound #5, and the mixture was cultured in the same manner, respectively, as [Compound #9 addition group], [Compound #13 addition group], [Compound #21 addition group], [Compound #30 addition group], and […].
On the other hand, as a control, DMSO (dimethyl sulfoxide) was added to have a concentration of 0.2 wt. %, and the mixture was cultured for 24 hours ([Control group]).
After completion of culture, the cells were recovered, disrupted by a typical method, and the amount of each of the proteins (SIRTI proteins, etc.) in the cells was detected by Western blotting. Further, the results of quantification of each band in the detection results of the Western blotting in FIG. 6 through normalization with the band of β-actin as a loading control are shown in FIG. 7.

[3] = system: muscle cells of aged mice; experiment: RNA-Seq, pathway and ChIP-Atlas analysis of muscle cells of aged mice; format: in vivo, mouse; settings: oral, 50 mg/kg/day, 2 months
Procedure: Water-suspended Compound #5 was orally administered to C57BL6 mice (92 weeks old) at a dose of 50 mg/kg/day per kg of mouse weight for 2 months ([MA5 addition group], n=5). After 2 months of oral administration, the mice were 101 weeks old.
In addition, water was orally administered to C57BL6 mice (92 weeks old) for 2 months ([Vehicle group], n=5). After 2 months of oral administration, the mice were 101 weeks old.
RNA sequencing (RNA-Seq) analysis was performed on the muscle cells of aged mice in [MA5 addition group] and [Vehicle group] to identify genes whose expression levels changed (increased or decreased) in [MA5 addition group] and [Vehicle group] compared to the muscle cells of young mice before administration.
Based on the names of genes whose expression levels increased or decreased in the aged mice of [MA5 addition group] as compared with the aged mice of [Vehicle group] in the RNA sequence (RNA-Seq) analysis, pathway analysis of genes whose expression levels varied in muscle cells of the aged mice of [MA5 addition group] was performed.
The results of the names of the genes whose expression levels increased or decreased in the aged mice of [MA5 addition group] as compared with the aged mice of [Vehicle group] in the RNA sequence (RNA-Seq) analysis were used to perform integrated analysis with ChIP-Atlas to investigate transcription factors possibly related to these genes.

[4] = system: liver cells of young mice; experiment: RNA-Seq and ChIP-Atlas analysis of liver cells of young mice; format: in vivo, mouse; settings: oral, 50 mg/kg/day, 2 months, Table 3
Procedure: Water-suspended Compound #5 was orally administered to C57BL6 mice (12 weeks old) at a dose of 50 mg/kg/day per kg of mouse weight for 2 months ([MA5 addition group], n=5). After 2 months of oral administration, the mice were 20 weeks old.
In addition, water was orally administered to C57BL6 mice (12 weeks old) for 2 months ([Vehicle group], n=5). After 2 months of oral administration, the mice were 20 weeks old.
RNA sequencing (RNA-Seq) analysis was performed on the liver cells of young mice in [MA5 addition group] and [Vehicle group] to identify genes whose expression levels changed (increased or decreased) in [MA5 addition group] as compared with [Vehicle group]. Using the results of these gene names, integrated analysis with ChIP-Atlas was performed to investigate transcription factors possibly related to these genes.

[5] = system: NDUFS4 homozygous knockout mice (Ndufs4−/−mice); experiment: Electron microscopic observation of liver tissue (fatty liver) of Ndufs4−/− mice; format: in vivo; settings: oral, 0.1 kg/day per mg of mouse weight, 24 days, vs Control 1 group (water)
Text: Compound #5 was orally administered to NDUFS4 homozygous knockout mice (Ndufs4−/−mice) (4 weeks old) at a dose of 0.1 kg/day per mg of mouse weight for 24 days ([Compound #5 administration group]).
In addition, water was orally administered to NDUFS4 homozygous knockout mice (Ndufs4−/−mice) for 24 days ([DMSO group; Control 1 group]). Further, water was orally administered to wild-type mice for 24 days ([Control 2 group]).

O=C(CC(C(=O)O)c1c[nH]c2ccccc12)c1ccc(F)cc1F (stereo not drawn) [Compound #5, 4-(2,4-difluorophenyl)-2-(1H-indole-3-yl)-4-oxo-butanoic acid]
methylation of insulin resistance pathway ([1]; aged mice (92 weeks old)): inhibited | methylation of insulin signaling pathway ([1]; aged mice (92 weeks old)): inhibited | methylation of Insulin secretion pathway ([1]; young mice (12 weeks old)): inhibited | methylation of Signaling pathways regulating pluripotency of stem cells ([1]; young mice (12 weeks old)): inhibited | methylation of Wnt signaling pathway ([1]; young mice (12 weeks old)): inhibited | size of lipid droplets in brown adipose tissue [2]: decrease | amount of SIRTI protein in cells (SIRTI protein): increased | MAPK cascade (pathway analysis) [3]: inhibition | insulin signaling pathway (pathway analysis) [3]: enhancement | longevity regulating pathway (pathway analysis) [3]: enhancement | transcription factors associated with genes whose expression was increased (ChIP-Atlas) ([3]; Table 1): FOXO1 known as longevity genes, KLF4, which is one of reprogramming factors necessary for the production of iPS cells, and KLF2 and KLF5 | expression level of Klf4 Gene ([3]; vs Vehicle group): significantly increased | expression level of Myc Gene ([3]; vs Vehicle group): significantly increased | expression level of Nanog Gene ([3]; vs Vehicle group): tended to increase | expression level of Pou5f1 (Oct4) Gene ([3]; vs Vehicle group): tended to increase | expression level of Sox2 Gene ([3]; vs Vehicle group): significantly increased | transcription factors related to genes whose expression increased (ChIP-Atlas) [4]: MYC, OCT4, SOX2, and NANOG related to reprogramming factors in the production of iPS cells, RXR (retinoid X receptor) and PPARA (peroxisome proliferator-activated receptor a) related to SIRT, and TRIM28 | fat deposition in hepatocytes (fatty liver) [5]: clear reduction
